What follows are compounds tested against T1, Human Factor D (Homo sapiens, UniProt P00746) (assay: Human Factor D Assay). Conditions: Human Factor D 80 nM, substrate Z-L-Lys-SBzl, assay of Example 3; read-out: IC50 (Stars).
T1 construct: purified from human serum; purchased Complement Technology, Inc; host or cells: human serum (natural protein, not recombinant)
Format: biochemical
Description: Human Factor D (purified from human serum, Complement Technology, Inc.) at 80 nM final concentration is incubated with test compound at various concentrations for 5 min at room temperature in 50 mM Tris, 1M NaCl, pH 7.5. A synthetic substrate Z-L-Lys-SBzl and DTNB (Ellman's reagent) are added to final concentrations of 100 μM each. […] IC50 values are calculated by nonlinear regression of complement Factor D reaction rates as a function of test compound concentration.

T1 sequence (P00746 26-253): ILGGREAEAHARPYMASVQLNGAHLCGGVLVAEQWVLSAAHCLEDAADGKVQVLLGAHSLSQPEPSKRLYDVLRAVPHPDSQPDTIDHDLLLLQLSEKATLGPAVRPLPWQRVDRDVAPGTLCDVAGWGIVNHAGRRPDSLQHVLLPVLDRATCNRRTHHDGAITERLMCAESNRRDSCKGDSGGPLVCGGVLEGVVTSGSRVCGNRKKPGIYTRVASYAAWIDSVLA

| SMILES | IC50 [nM] |
| --- | --- |
| CC(=O)c1nn(CC(=O)N2[C@H](C(=O)NCCc3ccccc3Cl)C[C@@]3(C)C[C@@H]23)c2c(C)cc(-c3cnc(C)nc3)cc12 [Compound 3, (1R,3S,5R)-2-(2-(3-Acetyl-7-methyl-5-(2-methylpyrimidin-5-yl)-1H-indazol-1-yl)acetyl)-N-(2-chlorophenethyl)-5-methyl-2-azabicyclo[3.1.0]hexane-3-carboxamide] | < 1000 |
| COC(=O)c1ncc(-c2cc(C)c3c(c2)c(C(C)=O)nn3CC(=O)N2[C@H](C(=O)Nc3nc(Br)ccc3C)C[C@@]3(C)C[C@@H]23)cn1 [Compound 38, methyl 5-(3-acetyl-1-(2-((1R,3S,5R)-3-((6-bromo-3-methylpyridin-2-yl)carbamoyl)-5-methyl-2-azabicyclo[3.1.0]hexan-2-yl)-2-oxoethyl)-7-methyl-1H-indazol-5-yl)pyrimidine-2-carboxylate] | < 1000 |
| CC(=O)c1nn(CC(=O)N2[C@H](C(=O)NCCc3ccccc3F)C[C@@]3(C)C[C@@H]23)c2c(C)cc(-c3cnc(C)nc3)cc12 [Compound 1, (1R,3S,5R)-2-(2-(3-Acetyl-7-methyl-5-(2-methylpyrimidin-5-yl)-1H-indazol-1-yl)acetyl)-N-(2-fluorophenethyl)-5-methyl-2-azabicyclo[3.1.0]hexane-3-carboxamide] | < 1000 |

Same assay, conditions: Human Factor D 80 nM, substrate Z-L-Lys-SBzl; Table 2; read-out: IC50 (Stars)

| SMILES | IC50 [nM] |
| --- | --- |
| COC(=O)c1ncc(-c2ccc3c(c2)c(C(C)=O)nn3CC(=O)N2[C@H](C(=O)Nc3nc(Br)ccc3C)C[C@@]3(C)C[C@@H]23)cn1 [Compound 46, methyl 5-(3-acetyl-1-(2-((1R,3S,5R)-3-((6-bromo-3-methylpyridin-2-yl)carbamoyl)-5-methyl-2-azabicyclo[3.1.0]hexan-2-yl)-2-oxoethyl)-1H-indazol-5-yl)pyrimidine-2-carboxylate] | < 1000 |
| CC(=O)c1cn(CC(=O)N2[C@H](C(=O)Nc3cnc(C)c(Br)n3)C[C@@]3(C)C[C@@H]23)c2c(C)cc(-c3cnc(C)nc3)cc12 [Compound 160, (1R,3S,5R)-2-(2-(3-acetyl-7-methyl-5-(2-methylpyrimidin-5-yl)-1H-indol-1-yl)acetyl)-N-(6-bromo-5-methylpyrazin-2-yl)-5-methyl-2-azabicyclo[3.1.0]hexane-3-carboxamide] | < 1000 |
| CC(=O)c1cn(CC(=O)N2[C@H](C(=O)Nc3nc(OC(F)(F)F)ccc3C)C[C@@]3(C)C[C@@H]23)c2c(C)cc(-c3cnc4cc(C)nn4c3)cc12 [Compound 206, (1R,3S,5R)-2-(2-(3-acetyl-7-methyl-5-(2-methylpyrazolo[1,5-a]pyrimidin-6-yl)-1H-indol-1-yl)acetyl)-5-methyl-N-(3-methyl-6-(trifluoromethoxy)pyridin-2-yl)-2-azabicyclo[3.1.0]hexane-3-carboxamide] | < 1000 |
| Cc1ncc(-c2cc3c(C(N)=O)nn(CC(=O)N4[C@H](C(=O)Nc5cncc(Br)n5)C[C@@]5(C)C[C@@H]45)c3c(C)n2)cn1 [Compound 92, 1-{2-[3-(6-Bromo-pyrazin-2-ylcarbamoyl)-5-methyl-2-aza-bicyclo[3.1.0]hex-2-yl]-2-oxo-ethyl}-7-methyl-5-(2-methyl-pyrimidin-5-yl)-1H-pyrazolo[3,4-c]pyridine-3-carboxylic acid amide] | < 1000 |
| CC(=O)c1nn(CC(=O)N2[C@H](C(=O)Nc3nc(OC(F)(F)F)ccc3C)C[C@@]3(C)C[C@@H]23)c2c(C)cc(-c3cnc(CO)nc3)cc12 [Compound 55, (1R,3S,5R)-2-(2-(3-acetyl-5-(2-(hydroxymethyl)pyrimidin-5-yl)-7-methyl-1H-indazol-1-yl)acetyl)-5-methyl-N-(3-methyl-6-(trifluoromethoxy)pyridin-2-yl)-2-azabicyclo[3.1.0]hexane-3-carboxamide] | < 1000 |
| CC(=O)c1nn(CC(=O)N2[C@H](C(=O)NC(C)c3cccnn3)C[C@@]3(C)C[C@@H]23)c2c(C)cc(-c3cnc(C)nc3)cc12 (stereo partly drawn) [Compound 189, (1R,3S,5R)-2-{2-[3-acetyl-7-methyl-5-(2-methylpyrimidin-5-yl)indazol-1-yl]acetyl}-5-methyl-N-[1-(pyridazin-3-yl)ethyl]-2-azabicyclo[3.1.0]hexane-3-carboxamide] | < 1000 |
| CC(=O)c1nn(CC(=O)N2[C@H](C(=O)Nc3cncc(Br)n3)C[C@@]3(C)C[C@@H]23)c2c(C)cc(-c3cnc(C(C)O)nc3)cc12 (stereo partly drawn) [Compound 109, (1R,3S,5R)-2-(2-(3-acetyl-5-(2-(1-hydroxyethyl)pyrimidin-5-yl)-7-methyl-11H-indazol-1-yl)acetyl)-N-(6-bromopyrazin-2-yl)-5-methyl-2-azabicyclo[3.1.0]hexane-3-carboxamide] | < 1000 |
| Cc1ncc(-c2cc3c(C(N)=O)nn(CC(=O)N4C(C(=O)Nc5nc(Br)ccc5Cl)CC5(C)CC45)c3c(C)n2)cn1 (stereo not shown) [Compound 91, 1-{2-[3-(6-Bromo-3-chloro-pyridin-2-ylcarbamoyl)-5-methyl-2-aza-bicyclo[3.1.0]hex-2-yl]-2-oxo-ethyl}-7-methyl-5-(2-methyl-pyrimidin-5-yl)-1H-pyrazolo[3,4-c]pyridine-3-carboxylic acid amide] | < 1000 |
| CC(=O)c1nn(CC(=O)N2[C@H](C(=O)NCC3CCc4ccccc4C3)C[C@@]3(C)C[C@@H]23)c2c(C)cc(-c3cnc(C)nc3)cc12 (stereo partly drawn) [Compound 117, (1R,3S,5R)-2-{2-[3-acetyl-7-methyl-5-(2-methylpyrimidin-5-yl)indazol-1-yl]acetyl}-5-methyl-N-(1,2,3,4-tetrahydronaphthalen-2-ylmethyl)-2-azabicyclo[3.1.0]hexane-3-carboxamide] | < 1000 |
| CC(=O)c1nn(CC(=O)N2[C@H](C(=O)NCCC3CC3)C[C@@]3(C)C[C@@H]23)c2c(C)cc(-c3cnc(C)nc3)cc12 [Compound 105, (1R,3S,5R)-2-{2-[3-acetyl-7-methyl-5-(2-methylpyrimidin-5-yl)indazol-1-yl]acetyl}-N-(2-cyclopropylethyl)-5-methyl-2-azabicyclo[3.1.0]hexane-3-carboxamide] | < 1000 |
| COC(=O)c1ncc(-c2cc(C)c3c(c2)c(C(C)=O)nn3CC(=O)N2[C@H](C(=O)Nc3nc(C(F)(F)F)ccc3C)C[C@@]3(C)C[C@@H]23)cn1 [Compound 50, Methyl 5-(3-acetyl-7-methyl-1-(2-((1R,3S,5R)-5-methyl-3-((3-methyl-6-(trifluoromethyl)pyridin-2-yl)carbamoyl)-2-azabicyclo[3.1.0]hexan-2-yl)-2-oxoethyl)-1H-indazol-5-yl)pyrimidine-2-carboxylate] | < 1000 |
| CC(=O)c1nn(CC(=O)N2[C@H](C(=O)Nc3nc(C(F)(F)F)ccc3C)C[C@@]3(C)C[C@@H]23)c2c(CF)cc(-c3cnc(C)nc3)cc12 [Compound 237, (1R,3S,5R)-2-(2-(3-acetyl-7-(fluoromethyl)-5-(2-methylpyrimidin-5-yl)-1H-indazol-1-yl)acetyl)-5-methyl-N-(3-methyl-6-(trifluoromethyl)pyridin-2-yl)-2-azabicyclo[3.1.0]hexane-3-carboxamide] | < 1000 |
| CC(=O)c1nn(CC(=O)N2[C@H]3CC[C@H](C3)[C@H]2C(=O)Nc2nc(Br)ccc2C)c2c(C)cc(-c3cnc(CO)nc3)cc12 [Compound 100, (1S,3S,4R)-2-(2-(3-acetyl-5-(2-(hydroxymethyl)pyrimidin-5-yl)-7-methyl-1H-indazol-1-yl)acetyl)-N-(6-bromo-3-methylpyridin-2-yl)-2-azabicyclo[2.2.1]heptane-3-carboxamide] | < 1000 |

Source: US20230022157A1 (Achillion Pharmaceuticals, Inc., priority 2018, published 2023)
